Experiment [1] in a line: Luminescence Cell-Based Dose Retest to Confirm Inhibitors of Cancer Stem Cells. [Related pubchem assays (depositor defined):AID2717, AID2721]. Format: functional. The note with it: Homo sapiens.
The nature of experiment [2]: viability loss of HMLE_sh_eGFP cells – cell-based, luminescence, counter-screen for HMLE_sh_ECad selective toxicity project, dose response (AID 463074).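 Also: HMLE human mammary epithelial cells expressing control shRNA against eGFP.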 Format: functional, Homo sapiens.
Experiment [3] addresses T1, Tyrosyl-DNA phosphodiesterase 2 (Homo sapiens, UniProt O95551).
T1 sequence (O95551 whole entry): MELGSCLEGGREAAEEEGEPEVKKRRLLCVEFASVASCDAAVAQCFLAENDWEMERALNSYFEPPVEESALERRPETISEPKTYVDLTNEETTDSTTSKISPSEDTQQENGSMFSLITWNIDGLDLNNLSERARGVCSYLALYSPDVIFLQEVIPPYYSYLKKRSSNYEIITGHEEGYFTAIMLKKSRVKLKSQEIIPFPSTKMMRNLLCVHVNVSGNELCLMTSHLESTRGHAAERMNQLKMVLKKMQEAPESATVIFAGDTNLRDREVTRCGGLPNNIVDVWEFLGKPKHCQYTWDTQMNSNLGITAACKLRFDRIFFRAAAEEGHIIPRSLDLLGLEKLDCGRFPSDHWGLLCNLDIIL
Put plainly: potency against TDP2 phosphodiesterase activity – biochemical, epi absorbance, IC50, dose response (AID 743297).

The target in experiment [4] is T2, Mannose-6-phosphate isomerase (Homo sapiens, UniProt P34949).
T2 sequence (P34949 whole entry): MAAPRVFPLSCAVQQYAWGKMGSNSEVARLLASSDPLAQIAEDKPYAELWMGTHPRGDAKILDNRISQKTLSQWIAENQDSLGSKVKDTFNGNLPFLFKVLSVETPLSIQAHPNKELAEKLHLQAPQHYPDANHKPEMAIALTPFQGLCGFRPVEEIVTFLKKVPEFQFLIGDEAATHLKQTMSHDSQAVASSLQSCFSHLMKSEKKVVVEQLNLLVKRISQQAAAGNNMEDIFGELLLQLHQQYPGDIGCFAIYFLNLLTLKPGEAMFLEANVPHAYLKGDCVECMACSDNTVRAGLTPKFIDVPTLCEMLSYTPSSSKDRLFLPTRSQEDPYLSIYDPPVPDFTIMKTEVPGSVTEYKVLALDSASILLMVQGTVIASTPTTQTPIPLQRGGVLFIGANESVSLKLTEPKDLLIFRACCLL
Put plainly: MPI inhibition at elevated mannose 6-phosphate – biochemical, fluorescence intensity, high mannose 6-phosphate, primary screen (AID 1220).

The target of experiment [5] is Delta-type opioid receptor (Homo sapiens, UniProt P41143). Briefly: Counterscreen for agonists of heterodimerization of the mu 1 (OPRM1) and delta 1 (OPRD1) opioid receptors: Luminescence-based cell-based high throughput dose response assay to identify agonists of OPRD1 homodimerization. [Related pubchem assays (depositor defined):AID504326, AID504355, AID504692, AID504904, AID504905]. Format: functional.
Delta-type opioid receptor, sequence (P41143 whole entry): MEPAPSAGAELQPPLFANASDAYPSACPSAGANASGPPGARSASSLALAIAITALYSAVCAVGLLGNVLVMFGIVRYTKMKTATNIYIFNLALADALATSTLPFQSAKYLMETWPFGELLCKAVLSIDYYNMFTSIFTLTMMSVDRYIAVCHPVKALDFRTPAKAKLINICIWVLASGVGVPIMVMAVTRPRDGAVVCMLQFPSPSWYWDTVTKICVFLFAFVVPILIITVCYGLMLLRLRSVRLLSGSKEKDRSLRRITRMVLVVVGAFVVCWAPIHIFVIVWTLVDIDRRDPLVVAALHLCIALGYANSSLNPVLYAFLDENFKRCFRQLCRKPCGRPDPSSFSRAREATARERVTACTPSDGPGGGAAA

A further experiment deals with Mu-type opioid receptor (Homo sapiens, UniProt P35372). Put plainly: Counterscreen for agonists of heterodimerization of the mu 1 (OPRM1) and delta 1 (OPRD1) opioid receptors: Luminescence-based cell-based high throughput dose response assay to identify agonists of OPRM1 homodimerization. Format: functional.
Mu-type opioid receptor, sequence (P35372 whole entry): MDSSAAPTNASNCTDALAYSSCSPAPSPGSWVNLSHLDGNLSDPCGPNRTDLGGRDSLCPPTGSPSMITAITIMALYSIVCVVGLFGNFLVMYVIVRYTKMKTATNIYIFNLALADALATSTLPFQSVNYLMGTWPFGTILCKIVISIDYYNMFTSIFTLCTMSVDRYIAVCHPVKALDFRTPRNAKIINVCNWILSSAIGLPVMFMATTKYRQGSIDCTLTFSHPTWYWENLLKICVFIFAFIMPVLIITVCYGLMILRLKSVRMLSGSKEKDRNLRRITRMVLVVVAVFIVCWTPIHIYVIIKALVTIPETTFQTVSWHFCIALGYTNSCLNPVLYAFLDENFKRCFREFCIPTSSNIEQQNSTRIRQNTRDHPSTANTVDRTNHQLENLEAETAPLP
The target in experiment [6] is 5-hydroxytryptamine receptor 5A (Homo sapiens, UniProt P47898). Put plainly: Counterscreen for agonists of OPRM1-OPRD1 heterodimerization: luminescence-based cell-based high throughput dose response assay to identify agonists of 5-hydroxytryptamine (serotonin) 5A receptor (HTR5A). [Related pubchem assays (depositor defined):AID504326, AID504355, AID504692, AID504904, AID504905]. Format: functional.
5-hydroxytryptamine receptor 5A, sequence (P47898 whole entry): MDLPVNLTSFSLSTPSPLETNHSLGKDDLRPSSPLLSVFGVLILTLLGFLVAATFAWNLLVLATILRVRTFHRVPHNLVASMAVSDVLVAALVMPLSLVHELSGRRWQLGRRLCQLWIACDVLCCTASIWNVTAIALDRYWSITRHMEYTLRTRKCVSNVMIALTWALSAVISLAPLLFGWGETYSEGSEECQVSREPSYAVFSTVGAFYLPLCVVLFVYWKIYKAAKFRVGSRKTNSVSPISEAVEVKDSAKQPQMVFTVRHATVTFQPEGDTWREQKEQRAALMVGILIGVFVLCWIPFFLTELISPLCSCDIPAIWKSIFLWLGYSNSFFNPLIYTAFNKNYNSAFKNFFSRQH

Experiment [7] has as its target T3, Short transient receptor potential channel 4 (Mus musculus, UniProt Q9QUQ5).
T3 sequence (Q9QUQ5 whole entry): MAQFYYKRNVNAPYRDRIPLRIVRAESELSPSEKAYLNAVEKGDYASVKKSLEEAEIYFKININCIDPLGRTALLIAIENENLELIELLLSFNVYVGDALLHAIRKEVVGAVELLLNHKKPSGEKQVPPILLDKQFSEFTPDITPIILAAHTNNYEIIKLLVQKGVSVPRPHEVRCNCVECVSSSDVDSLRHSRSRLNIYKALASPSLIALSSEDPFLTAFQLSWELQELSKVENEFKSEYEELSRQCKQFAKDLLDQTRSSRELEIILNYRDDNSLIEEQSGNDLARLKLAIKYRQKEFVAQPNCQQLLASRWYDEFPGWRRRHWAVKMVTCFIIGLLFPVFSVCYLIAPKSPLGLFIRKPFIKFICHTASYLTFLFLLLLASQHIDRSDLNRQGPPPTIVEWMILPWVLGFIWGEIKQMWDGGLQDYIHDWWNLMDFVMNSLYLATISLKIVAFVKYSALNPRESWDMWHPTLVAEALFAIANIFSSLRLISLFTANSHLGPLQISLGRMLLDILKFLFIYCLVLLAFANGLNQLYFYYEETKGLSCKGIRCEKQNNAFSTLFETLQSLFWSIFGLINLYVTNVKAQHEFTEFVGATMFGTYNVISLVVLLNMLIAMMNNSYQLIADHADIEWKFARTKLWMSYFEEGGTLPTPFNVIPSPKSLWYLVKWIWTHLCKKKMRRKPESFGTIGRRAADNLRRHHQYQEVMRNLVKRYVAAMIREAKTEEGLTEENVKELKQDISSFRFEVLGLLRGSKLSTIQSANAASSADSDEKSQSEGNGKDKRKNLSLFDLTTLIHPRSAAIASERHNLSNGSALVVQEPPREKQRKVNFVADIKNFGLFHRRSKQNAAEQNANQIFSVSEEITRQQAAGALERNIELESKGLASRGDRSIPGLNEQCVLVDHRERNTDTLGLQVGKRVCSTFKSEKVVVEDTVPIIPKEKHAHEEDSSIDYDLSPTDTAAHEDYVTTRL
Put plainly: calcium entry via TRPC4 opening agents – cell-based, HEK293 TRPC4/mu-opioid, Fluo-4 calcium, dose response (AID 434937). Format: functional.

Experiment [8] can be described thus: PAX5 cellular inhibition readout – cell-based, plate reader, dry powder samples, selectivity assay for PAX8 inhibitor project, dose response (AID 743047).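 Also: HEK293 cells carrying a Pax5 driven CD19 promoter luciferase reporter; potency of inhibitors that lower reporter luminescence.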 Format: functional.
Experiment [9] addresses T4, Microphthalmia-associated transcription factor (Homo sapiens, UniProt O75030).
T4 sequence (O75030 whole entry): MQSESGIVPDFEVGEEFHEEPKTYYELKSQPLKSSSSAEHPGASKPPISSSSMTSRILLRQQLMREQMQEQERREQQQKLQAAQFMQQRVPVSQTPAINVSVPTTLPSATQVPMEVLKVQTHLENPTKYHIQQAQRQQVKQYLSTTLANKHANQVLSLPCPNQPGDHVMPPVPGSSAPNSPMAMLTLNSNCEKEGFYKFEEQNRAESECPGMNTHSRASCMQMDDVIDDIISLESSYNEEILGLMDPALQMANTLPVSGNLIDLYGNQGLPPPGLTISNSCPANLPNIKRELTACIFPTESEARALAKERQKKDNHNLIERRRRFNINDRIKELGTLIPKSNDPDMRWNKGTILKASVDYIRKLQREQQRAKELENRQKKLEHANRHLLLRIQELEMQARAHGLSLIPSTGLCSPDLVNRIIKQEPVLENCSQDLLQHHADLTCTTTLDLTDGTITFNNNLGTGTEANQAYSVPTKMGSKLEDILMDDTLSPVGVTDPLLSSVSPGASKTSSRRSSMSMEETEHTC
Briefly: reducers of TRPM1 reporter luminescence, concentration series – cell-based, SK-MEL-5, cherry-picked, set 3, MITF inhibitor project, dose response (AID 493073).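 Also: SK-MEL-5 melanoma cells with luciferase driven by the MITF target TRPM1 promoter.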 Format: functional.

The subject of the next experiment is A-375. Briefly: proliferation inhibition in MITF-low A375 cells – cell-based, cherry-pick samples, set 2, counter-screen for MITF modulator project, dose response (AID 540335). The note with it: Homo sapiens. Format: functional.
The subject of another experiment is INS1. Put plainly: INS-1E survival protection against cytokine death – cell-based, luminescence, retest, dose response (AID 449756).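 Also: cell death triggered by IL-1 beta plus TNF-alpha plus IFN-gamma mixture; protective hits raise ATP signal compared with cytokine alone wells.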 Format: functional. The note with it: Rattus norvegicus.
The test system of experiment [10] is HEK293. Put plainly: NOD2 signaling inhibitors in MDP-stimulated cells, cell-based, uHTS, luminescence (AID 2001). The note with it: Homo sapiens. Format: functional.
For another experiment, the target named is Paired box protein Pax-8 (Homo sapiens, UniProt Q06710). Put plainly: PAX8 transcriptional activity inhibition in RMG-I – RMG-I cells, luciferase, cherry-pick, dose response (AID 687027).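 Also: luciferase reporter driven by Pax8 target thyroperoxidase promoter measured by SteadyGlo luminescence.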 Format: functional, cell-based.
Paired box protein Pax-8, sequence (Q06710 whole entry, the tested form may be a part): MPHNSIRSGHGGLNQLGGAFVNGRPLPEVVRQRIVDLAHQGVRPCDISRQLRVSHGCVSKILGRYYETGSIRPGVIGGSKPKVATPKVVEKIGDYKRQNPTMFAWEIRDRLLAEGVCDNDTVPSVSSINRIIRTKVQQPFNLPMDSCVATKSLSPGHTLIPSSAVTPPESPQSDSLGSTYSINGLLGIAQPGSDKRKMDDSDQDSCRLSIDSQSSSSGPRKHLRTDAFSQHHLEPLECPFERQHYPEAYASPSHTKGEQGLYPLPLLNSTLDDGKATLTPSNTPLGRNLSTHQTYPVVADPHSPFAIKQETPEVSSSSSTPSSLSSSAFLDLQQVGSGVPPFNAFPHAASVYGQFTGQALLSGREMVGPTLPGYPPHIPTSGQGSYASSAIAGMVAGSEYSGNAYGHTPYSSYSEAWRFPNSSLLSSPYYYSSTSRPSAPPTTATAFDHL
Experiment [11] can be described thus: HIV-1 AD8 envelope cell-cell fusion blockers – cherry-pick, dose response (AID 652062).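 Also: luciferase signal from cell-cell fusion driven by HIV-1 clade B AD8 Env; potency is for inhibitors of fusion seen as a drop in luminescence.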 Format: functional, cell-based.
Experiment [12] in a line: OV-90 cell viability loss – plate reader, dry powder, SA8, PAX8 inhibitor project, dose response (AID 743149). Format: functional, cell-based.
Experiment [13] has as its system HEK293. Briefly: cells. Format: functional, cell-based. The note with it: Homo sapiens.
A short description of experiment [14]: PAX8-dependent cell viability loss – plate reader, dry powder, dose response (AID 743049). Format: functional, cell-based.
Experiment [15] concerns the target Nucleotide-binding oligomerization domain-containing protein 2 (Homo sapiens, UniProt Q9HC29). Put plainly: inhibition of NOD2-driven NF-kB reporter – cell-based, luminescence, uHTS, HEK293 (AID 1566). Format: functional.
Experiment [16] concerns HEK293. Put plainly: cells. Format: functional, cell-based. The note with it: Homo sapiens. The source holds these as a separate data set.
In experiment [17] the test system is HEK293. Put plainly: inhibition of NOD1-driven NF-kB reporter – cell-based, luminescence, uHTS, primary screen (AID 1578). The note with it: Homo sapiens. Format: functional.
The nature of experiment [18]: blockers of HIV-1 ZM109 envelope-driven cell-cell fusion – HeLa effector, CEM target cells, luciferase, cherry-pick, dose response (AID 652058).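 Also: luciferase signal from HIV-1 Env mediated cell-cell fusion of effector and target cells.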 Format: functional, cell-based.
Experiment [19] in a line: inhibitors acting on PAX2 in cells – cell-based, plate reader, dry powder samples, selectivity assay for PAX8 inhibitor project, dose response (AID 743048).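 Also: HEK293 cells carrying a WT1 promoter luciferase reporter driven by expressed Pax2; potency is for inhibition of Pax2 driven reporter signal.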 Format: functional.
Experiment [20] is described as follows: A2780 cell killing – plate reader, dry powder samples, cytotoxicity control, dose response (AID 743046). Format: functional, cell-based.
Experiment [21] in a line: blockers of HIV-1 envelope-mediated cell-cell fusion – cherry-pick, dose response (AID 652057). Format: functional, cell-based.
The nature of experiment [22]: off-target signal loss in HeLa-CEM21 co-culture – HeLa F-luc CTL cells, cherry-picked, counter-screen for HIV-1 Env fusion inhibitor project, dose response (AID 652040).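 Also: potency for signal decrease marking cytotoxic or nonspecific inhibition.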 Format: functional, cell-based.
Experiment [23] deals with HEK293. Put plainly: cells. Format: functional, cell-based. The note with it: Homo sapiens. The source holds these as a separate data set.
The nature of experiment [24]: viability loss in CEM21 cells – cell-based, CellTiter-Glo luminescence, cherry-picked, cytotoxicity control for viral fusion inhibitor project, dose response (AID 652042).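 Also: potency for signal decrease meaning cytotoxicity.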 Format: functional.
Experiment [25] in a line: COV434 cell viability loss – plate reader, dry powder, SA7, cytotoxicity control for PAX8 inhibitor project, dose response (AID 743145). Format: functional, cell-based.
A short description of experiment [26]: OVCAR-3 cell viability loss – plate reader, dry powder samples, PAX8 inhibitor project, dose response (AID 743044). Format: functional, cell-based.

Calls of active or inactive are those of the source.

These results are taken from ChEMBL document CHEMBL1201862, “PubChem BioAssay data set” (2004).

Nucleotide-binding oligomerization domain-containing protein 2, sequence (Q9HC29 whole entry, the tested form may be a part): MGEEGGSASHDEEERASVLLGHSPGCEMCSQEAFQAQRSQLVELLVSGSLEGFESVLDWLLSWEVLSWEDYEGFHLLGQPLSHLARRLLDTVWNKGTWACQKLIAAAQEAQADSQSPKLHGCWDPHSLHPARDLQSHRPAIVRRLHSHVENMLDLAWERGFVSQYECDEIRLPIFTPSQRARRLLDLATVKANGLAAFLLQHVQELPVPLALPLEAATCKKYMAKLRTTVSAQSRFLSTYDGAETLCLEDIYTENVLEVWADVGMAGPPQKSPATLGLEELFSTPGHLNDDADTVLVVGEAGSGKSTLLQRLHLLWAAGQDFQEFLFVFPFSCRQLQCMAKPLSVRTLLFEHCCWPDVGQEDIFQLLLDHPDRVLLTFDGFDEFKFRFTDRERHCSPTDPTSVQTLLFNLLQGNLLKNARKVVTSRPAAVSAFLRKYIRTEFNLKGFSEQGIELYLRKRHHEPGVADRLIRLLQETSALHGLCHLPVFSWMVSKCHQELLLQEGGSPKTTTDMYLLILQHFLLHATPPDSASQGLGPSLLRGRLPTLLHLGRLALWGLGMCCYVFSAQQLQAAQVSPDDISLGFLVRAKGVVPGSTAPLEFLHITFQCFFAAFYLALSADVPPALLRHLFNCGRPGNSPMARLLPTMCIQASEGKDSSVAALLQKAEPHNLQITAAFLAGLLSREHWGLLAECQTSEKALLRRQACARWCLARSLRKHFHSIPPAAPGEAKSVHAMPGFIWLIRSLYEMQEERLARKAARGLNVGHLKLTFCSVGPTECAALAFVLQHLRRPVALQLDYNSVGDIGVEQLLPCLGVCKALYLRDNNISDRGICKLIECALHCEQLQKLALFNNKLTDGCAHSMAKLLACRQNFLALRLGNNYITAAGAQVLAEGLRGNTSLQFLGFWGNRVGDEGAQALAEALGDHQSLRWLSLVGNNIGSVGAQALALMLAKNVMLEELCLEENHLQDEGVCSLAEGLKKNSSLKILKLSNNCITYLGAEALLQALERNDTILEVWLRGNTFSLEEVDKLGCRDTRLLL

`Oc1c(/C=N/c2cccc3nsnc23)ccc2ccccc12`: the AC50 is 23.7 µM (active) in experiment [1] and 29.4 µM (active) in experiment [2]. The IC50 in experiment [3] was 80.5 µM (inactive); in experiment [4] it was > 50 µM (not active).

Consider `OCC1(CCc2ccccc2)CCN(Cc2cccn2-c2cccnc2)CC1`, for which the EC50 was > 92.5 µM (inactive) in experiment [5], 52.6 µM (inactive) at Mu-type opioid receptor, > 92.5 µM (inactive) in experiment [6] and 0.149 µM (active) in experiment [7].

`CCSCCc1nnc(NC(=O)Nc2cccc(C(F)(F)F)c2)s1`: the AC50 is 5.02 µM (active) in experiment [8]; 8.99 µM (active) in experiment [9]; 6.62 µM (active) in the experiment on A-375; 3.91 µM (active) in the experiment with INS1; 7.31 µM (active) on Paired box protein Pax-8; 7.84 µM (active) in [11]. Also, the AC50 is > 100 µM (inactive) in experiment [12]; 23.1 µM (active) in [14]; 4.07 µM (active) in [18]; 5.05 µM (active) in experiment [19]; 8.04 µM (active) in [20]; 5.97 µM (active) in experiment [21]. In addition, the AC50 in experiment [22] is 3.56 µM (active); in [24] it was 5.2 µM (active); in experiment [25] it was 35.2 µM (active); in experiment [26], 27.4 µM (active). Also, the IC50 in the experiment on HEK293 [10] was 2.68 µM (active); in the experiment on HEK293 [13], > 20 µM (inactive); with HEK293 [16], 9.13 µM (active); in the experiment with HEK293 [23], 2.57 µM (active). The EC50 was 15 µM (active) in experiment [15] and 2.16 µM (active) in the experiment with HEK293 [17].
